From patent US8791132B2, “Compounds and methods for treatment of hypertension” (Medivation Technologies, Inc., priority 2011, dated 2014)
Several values for one entry are separate records, joined by “and”; a condition that tells them apart may be missing. Equal entries are not always repeated. Where two headings read alike, the source gives them in different places. Blank lines part the entries; values can stand above or below the compound they belong to.

Legend:
[1] = target: T1, human recombinant adrenergic α2B receptor (Homo sapiens, UniProt P18089); test: Radioligand binding, adrenergic α2B ([3H]Rauwolscine); settings: for Percentage inhibition of ligand binding, Adrenergic α2B / Percentage inhibition of ligand binding, Adrenergic α2B (0.03 μM): 0.03 µM; for Ki: read-out: Ki α2B; for inhibition at 0.1 µM: read-out: Percentage inhibition of ligand binding, Adrenergic α2B (0.1 μM), compound at 0.1 μM
T1 construct: expressed in transfected cells; host or cells: CHO-K1
T1 sequence (P18089 1-450): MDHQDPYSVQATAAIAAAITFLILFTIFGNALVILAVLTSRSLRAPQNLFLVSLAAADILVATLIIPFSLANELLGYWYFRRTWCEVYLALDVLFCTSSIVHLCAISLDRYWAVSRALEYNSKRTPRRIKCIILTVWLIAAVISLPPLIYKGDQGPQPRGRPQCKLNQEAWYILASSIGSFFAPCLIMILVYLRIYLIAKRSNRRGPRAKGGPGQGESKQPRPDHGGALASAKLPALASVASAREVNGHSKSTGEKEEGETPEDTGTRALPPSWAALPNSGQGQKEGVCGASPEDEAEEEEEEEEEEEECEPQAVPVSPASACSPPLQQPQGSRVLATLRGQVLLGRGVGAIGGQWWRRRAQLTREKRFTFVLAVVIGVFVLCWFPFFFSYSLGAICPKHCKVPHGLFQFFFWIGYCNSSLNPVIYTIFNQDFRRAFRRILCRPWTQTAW
Summary of the method: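 Readout: percent inhibition of specific [3H]Rauwolscine binding, measured by filtration and counting. Conditions: CHO-K1 cell-expressed receptor, 2.5 nM radioligand, 60 min, 25° C, Tris-HCl pH 7.4 buffer with MgCl2, EDTA, BSA. Non-specific binding: 10 μM Prazosin.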

[2] = target: T2, rat adrenergic α1B receptor (Rattus norvegicus, UniProt P15823); test: Radioligand binding, adrenergic α1B ([3H]Prazosin); settings: for Percentage inhibition of ligand binding, Adrenergic α1B / Percentage inhibition of ligand binding, Adrenergic α1B (0.1 μM): 0.1 µM
T2 construct: rat adrenergic α1B receptor obtained from Wistar Rat liver; from tissue; host or cells: Wistar rat liver
T2 sequence (P15823 1-515): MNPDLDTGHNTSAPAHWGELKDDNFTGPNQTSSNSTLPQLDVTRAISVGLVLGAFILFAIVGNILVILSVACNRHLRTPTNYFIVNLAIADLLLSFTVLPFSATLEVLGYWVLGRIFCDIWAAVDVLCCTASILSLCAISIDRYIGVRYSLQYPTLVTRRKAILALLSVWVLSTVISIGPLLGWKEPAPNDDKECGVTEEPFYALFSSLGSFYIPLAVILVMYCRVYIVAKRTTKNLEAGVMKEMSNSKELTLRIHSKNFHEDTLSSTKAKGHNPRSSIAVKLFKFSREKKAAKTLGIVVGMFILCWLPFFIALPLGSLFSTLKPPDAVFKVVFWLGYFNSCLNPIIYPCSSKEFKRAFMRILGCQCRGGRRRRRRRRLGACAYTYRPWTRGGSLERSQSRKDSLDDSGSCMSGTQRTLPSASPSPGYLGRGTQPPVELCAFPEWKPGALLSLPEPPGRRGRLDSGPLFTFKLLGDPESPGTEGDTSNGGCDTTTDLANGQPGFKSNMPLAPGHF
Summary of the method: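 Specific binding, taken as total minus that remaining with 10 μM phentolamine, is measured after filtration and counting. Rat liver receptor preparation and 0.25 nM [3H]prazosin are incubated with compound in 50 mM Tris-HCl (pH 7.4, 0.5 mM EDTA) at 25° C for 60 min. Activity is reported as percent inhibition.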

[3] = target: T3, human recombinant adrenergic α2A receptor (Homo sapiens, UniProt P08913); test: Radioligand binding, adrenergic α2A ([3H]MK-912); settings: for Percentage inhibition of ligand binding, Adrenergic α2A (0.1 μM) / Percentage inhibition of ligand binding, Adrenergic α2A: 0.1 µM
T3 construct: expressed in transfected cells; host or cells: insect Sf9 cells
T3 sequence (P08913 1-465): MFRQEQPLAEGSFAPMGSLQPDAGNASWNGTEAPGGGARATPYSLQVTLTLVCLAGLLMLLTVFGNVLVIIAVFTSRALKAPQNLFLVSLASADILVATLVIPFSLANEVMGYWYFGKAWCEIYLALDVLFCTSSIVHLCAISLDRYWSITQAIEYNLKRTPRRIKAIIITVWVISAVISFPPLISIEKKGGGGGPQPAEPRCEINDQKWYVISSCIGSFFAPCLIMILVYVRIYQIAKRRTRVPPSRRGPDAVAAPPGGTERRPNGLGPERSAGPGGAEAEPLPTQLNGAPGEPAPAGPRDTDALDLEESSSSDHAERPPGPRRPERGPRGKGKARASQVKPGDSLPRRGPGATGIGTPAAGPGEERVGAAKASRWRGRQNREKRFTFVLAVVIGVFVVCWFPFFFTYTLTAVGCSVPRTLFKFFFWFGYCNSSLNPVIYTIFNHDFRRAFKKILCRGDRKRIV
Summary of the method: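 Sf9 membranes, 1 nM [3H]MK-912, 60 min, 25 °C, Tris-HCl pH 7.4/MgCl2/EDTA buffer. NSB: 10 μM WB-4101. Filtration, counting; % inhibition of specific binding.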

[4] = compound at 0.03 μM, [3H]Rauwolscine, repeat assays, each datapoint shown
[5] = compound at 0.1 μM, [3H]Prazosin, repeat assays, each datapoint shown
[6] = compound at 0.03 μM, [3H]Rauwolscine, repeat datapoints each shown
[7] = compound at 0.1 μM, [3H]Prazosin, repeat datapoints each shown
[8] = compound at 0.1 μM, [3H]MK-912, repeat datapoints each shown
[9] = 0.03 μM compound, read-out: Percentage inhibition of ligand binding, Adrenergic α2B
[10] = 0.1 μM compound, read-out: Percentage inhibition of ligand binding, Adrenergic α1B
[11] = 0.1 μM compound, read-out: Percentage inhibition of ligand binding, Adrenergic α2A
[12] = read-out: Percentage inhibition of ligand binding, Adrenergic α2B (0.03 μM), compound at 0.03 μM, [3H]Rauwolscine, repeat datapoints each shown
[13] = [3H]Rauwolscine, repeat datapoints each shown
[14] = read-out: Percentage inhibition of ligand binding, Adrenergic α1B (0.1 μM), compound at 0.1 μM, [3H]Prazosin, repeat datapoints each shown
[15] = read-out: Percentage inhibition of ligand binding, Adrenergic α2A (0.1 μM), compound at 0.1 μM, [3H]MK-912, repeat datapoints each shown

SMILES: Cc1ccc2c(c1)c1c(n2CC(C)(O)c2cccnc2)CN(C)CC1 (single isomer, unassigned) [14a, 1-(2,6-dimethyl-1,2,3,4-tetrahydro-β-carbolin-9-yl)-2-pyridin-3-yl-propan-2-ol]
- Percentage inhibition of ligand binding, Adrenergic α2B [1, 4]: 98%
- inhibition at 0.03 µM ([1]; compound at 0.03 μM, [3H]Rauwolscine, repeat assays, each datapoint shown, read-out: Percentage inhibition of ligand binding, Adrenergic α2B): 97%
- Ki [1]: 1.92 nM
- inhibition at 0.03 µM ([2]; compound at 0.03 μM, [3H]Prazosin, repeat assays, each datapoint shown, read-out: Percentage inhibition of ligand binding, Adrenergic α1B): 17%
- Percentage inhibition of ligand binding, Adrenergic α1B [2, 5]: 44%
- inhibition at 0.1 µM ([2]; compound at 0.1 μM, [3H]Prazosin, repeat assays, each datapoint shown, read-out: Percentage inhibition of ligand binding, Adrenergic α1B): 43%
- Ki [3]: 123 nM

SMILES: C/C(=C\n1c2c(c3cc(C)ccc31)CN(C)CC2)c1ccncc1 [II-2]
- inhibition at 0.03 µM [1, 9]: 96%
- inhibition at 0.1 µM [2, 10]: 74%
- inhibition at 0.1 µM [3, 11]: 49%

SMILES: Cc1ccc2c(c1)c1c(n2CC(O)c2ccncc2C)CCN(C)C1 (single isomer, unassigned) [133b]
- Percentage inhibition of ligand binding, Adrenergic α2B (0.03 μM) [1, 6]: 88%
- Ki [1]: 2.42 nM
- inhibition at 0.03 µM [1, 12]: 87%
- inhibition at 0.1 µM [1, 13]: 94%
- Percentage inhibition of ligand binding, Adrenergic α1B (0.1 μM) [2, 7]: 42%
- inhibition at 0.03 µM ([2]; read-out: Percentage inhibition of ligand binding, Adrenergic α1B (0.03 μM), compound at 0.03 μM, [3H]Prazosin, repeat datapoints each shown): 16%
- inhibition at 0.1 µM [2, 14]: 40%
- Ki [3]: 59.5 nM
- Percentage inhibition of ligand binding, Adrenergic α2A (0.1 μM) [3, 8]: 39%
- inhibition at 0.03 µM ([3]; read-out: Percentage inhibition of ligand binding, Adrenergic α2A (0.03 μM), compound at 0.03 μM, [3H]MK-912, repeat datapoints each shown): 27%
- inhibition at 0.1 µM [3, 15]: 34%

SMILES: Cc1ccc2c(c1)c1c(n2CC(O)c2ccncc2)CC2CCCCN2C1 (racemic) [75a]
- Percentage inhibition of ligand binding, Adrenergic α2B [1, 4]: 77%
- Percentage inhibition of ligand binding, Adrenergic α1B [2, 5]: 61%
- Percentage inhibition of ligand binding, Adrenergic α2A ([3]; compound at 0.1 μM, [3H]MK-912, repeat assays, each datapoint shown): 11%

SMILES: CN1CCc2c(c3ccccc3n2CC(C)(O)c2cccnc2)C1 (single isomer, unassigned) [173a]
- Percentage inhibition of ligand binding, Adrenergic α2B (0.03 μM) [1, 6]: 61% and 68%
- Ki [1]: 8.77 nM
- inhibition at 0.1 µM [1, 13]: 82%
- inhibition at 0.1 µM [2, 14]: 5%
- Percentage inhibition of ligand binding, Adrenergic α2A (0.1 μM) [3, 8]: 15%

SMILES: Cc1ccc2c(c1)c1c(n2CC(C)(O)c2cccnc2)CNCC1 (centres unmarked) [128b]
- inhibition at 0.03 µM [1, 12]: 54%
- inhibition at 0.1 µM [2, 14]: 45%
- inhibition at 0.1 µM [3, 15]: 22%

SMILES: CC(=O)NC(Cn1c2c(c3cc(C)ccc31)CN(C)CC2)c1ccncc1 (single isomer, unassigned) [II-1a, N-(2-(1,2,3,4-tetrahydro-2,8-dimethylpyrido[4,3-b]indol-5-yl)-1-(pyridin-4-yl)ethyl)acetamide]
- Percentage inhibition of ligand binding, Adrenergic α2B ([1]; 0.03 μM compound): 14%
- Percentage inhibition of ligand binding, Adrenergic α1B ([2]; 0.1 μM compound): 6%
- Percentage inhibition of ligand binding, Adrenergic α2A ([3]; 0.1 μM compound): 15%

SMILES: Cc1cnc2c(c1)c1c(n2CC(N)c2ccc(C#N)cc2)CCN(C)C1 (single isomer, unassigned) [159b]
- Percentage inhibition of ligand binding, Adrenergic α2B (0.03 μM) [1, 6]: 52%
- Percentage inhibition of ligand binding, Adrenergic α1B (0.1 μM) [2, 7]: 53%
- Percentage inhibition of ligand binding, Adrenergic α2A (0.1 μM) [3, 8]: −12%

Continued, values first:

- Percentage inhibition of ligand binding, Adrenergic α2B (0.03 μM) [1, 6]: 16%
- Percentage inhibition of ligand binding, Adrenergic α1B (0.1 μM) [2, 7]: 13%
- Percentage inhibition of ligand binding, Adrenergic α2A (0.1 μM) [3, 8]: 3%
SMILES: Cc1ccc2c(c1)c1c(n2CC(C)(O)c2cccnc2)CC(C)N(C)C1 (single isomer, unassigned) [II-146d, 2-(pyridin-3-yl)-1-(2,3,8-trimethyl-3,4-dihydro-1H-pyrido[4,3-b]indol-5(2H)-yl)propan-2-ol]

- inhibition at 0.03 µM [1, 9]: 100%
- inhibition at 0.1 µM [2, 10]: 95%
- inhibition at 0.1 µM [3, 11]: 52%
SMILES: Cc1ccc2c(c1)c1c(n2CC(c2cnccn2)N(C)C)CCN2CCCC12 (centres unmarked) [II-7, dimethyl-[2-(9-methyl-1,2,3,4,5,10c-hexahydro-3a,6-diaza-cyclopenta[c]fluoren-6-yl)-1-pyrazin-2-yl-ethyl]-amine]

- Percentage inhibition of ligand binding, Adrenergic α2B (0.03 μM) [1, 6]: 102%
- Percentage inhibition of ligand binding, Adrenergic α1B (0.1 μM) [2, 7]: 98%
- Percentage inhibition of ligand binding, Adrenergic α2A (0.1 μM) [3, 8]: 59%
SMILES: Cc1cnc2c(c1)c1c(n2CC(O)c2ccncc2)CCN2CCCC12 (single isomer, unassigned) [IV-209c, 2-(9-Methyl-1,2,3,4,5,10c-hexahydro-3a,6,7-triaza-cyclopenta[c]fluoren-6-yl)-1-pyridin-4-yl-ethanol]

- Percentage inhibition of ligand binding, Adrenergic α2B (0.03 μM) [1, 6]: 67%
- Percentage inhibition of ligand binding, Adrenergic α1B (0.1 μM) [2, 7]: 42%
- Percentage inhibition of ligand binding, Adrenergic α2A (0.1 μM) [3, 8]: 9%
SMILES: Cc1cc(C)c2c(c1)c1c(n2CC(O)c2ccncc2)CCN2CCCC12 (single isomer, unassigned) [II-125c, 2-(8,10-dimethyl-2,3,5,6-tetrahydro-1H-indolizino[7,8-b]indol-7(11cH)-yl)-1-(pyridin-4-yl)ethanol]

- Percentage inhibition of ligand binding, Adrenergic α2B ([1]; 0.03 μM compound): 88%
- Percentage inhibition of ligand binding, Adrenergic α1B ([2]; 0.1 μM compound): 30%
- inhibition at 0.1 µM [3, 11]: 34%
SMILES: Cc1ccc2c(c1)c1c(n2CC(c2ccc(F)cc2)N(C)C)CCN(C)C1 (single isomer, unassigned) [II-14a, 2-(2,8-dimethyl-3,4-dihydro-1H-pyrido[4,3-b]indol-5(2H)-yl)-1-(4-fluorophenyl)-N,N-dimethylethanamine]

- inhibition at 0.03 µM [1, 9]: 21%
- inhibition at 0.1 µM [2, 10]: 8%
- inhibition at 0.1 µM [3, 11]: 8%
SMILES: Cc1ccc2c(c1)c1c(n2CC(C)(OC(=O)c2ccncc2)c2cccnc2)CCN(C)C1 (centres unmarked) [II-19]

- Percentage inhibition of ligand binding, Adrenergic α2B [1, 4]: 63%
- Percentage inhibition of ligand binding, Adrenergic α1B [2, 5]: 37%
- inhibition at 0.1 µM ([3]; compound at 0.1 μM, [3H]MK-912, repeat assays, each datapoint shown, read-out: Percentage inhibition of ligand binding, Adrenergic α2A): 13%
SMILES: Cc1cnc2c(c1)c1c(n2CC(O)c2ccncc2)CCN(C)C1 (centres unmarked) [compound 55, 2-(3,6-dimethyl-5,6,7,8-tetrahydro-1,6,9-triaza-fluoren-9-yl)-1-pyridin-4-yl-ethanol]

- inhibition at 0.03 µM [1, 12]: 36%
- inhibition at 0.1 µM [2, 14]: 5%
- Percentage inhibition of ligand binding, Adrenergic α2A (0.1 μM) [3, 8]: 10%
SMILES: Cc1ccc2c(c1)c1c(n2CC(C)(O)c2cccnc2)C(c2ccccc2)N(C)CC1 (stereo not drawn) [II-112a, 1-(2,6-dimethyl-1-phenyl-1,2,3,4-tetrahydro-β-carbolin-9-yl)-2-pyridin-3-yl-propan-2-ol]
